Values joined by “and” are separate entries in the source; they are usually repeats but may differ in a detail not shown here. Equal values may be shown once.
Assays:
[1] = tested on: human platelets; type: cell-based; settings: fibrinogen 2 mg/ml; PrP 20 µM
[2] = tested on: SH-SY5Y cells; type: cell-based, human
[3] = tested on: human platelets; type: cell-based; settings: fibrinogen 0.5 to 2 mg/ml before PrP(106–126) 20 µM; 1 mM Ca2+
[4] = tested on: SH-SY5Y cells; type: cell-based, human; remark: listed apart in the source
[5] = tested on: SH-SY5Y cells; type: cell-based, human; remark: listed apart in the source
[6] = tested on: calpain in washed human platelets; type: cell-based
[7] = tested on: talin in human platelets; type: cell-based
[8] = target: fibrinogen from human plasma (human, UniProt P02671 36-866; P02675 45-491; P02679 27-453); assay: SPR; settings: both partners purified

fibrinogen: thrombogenic plasma protein fibrinogen from human plasma (Sigma #F4883)
effect of prior fibrinogen exposure on prion-induced extracellular vesicle shedding [1]: completely thwarted
abrogation of the PrP-induced FSC increase by prior fibrinogen treatment [2]: 16.34% ± 17.85
effect of fibrinogen pretreatment on prion-induced rise in [Ca2+]i [3]: attenuated prion-induced rise in [Ca^2+]i in a dose-dependent manner
Cell line MTT (viability, Vehicle = 100) [4]: 101.27 and 76.19 and 118.37
effect of fibrinogen preincubation on PrP-induced loss of viability ([4]; 48 h): completely restored
attenuation of the rise in ΔΨm on preincubation with fibrinogen [5]: 1.7 fold
drop in calpain activity on fibrinogen preincubation [6]: 30%
effect of fibrinogen on prion-mediated cleavage of talin ([7]; fibrinogen 2 mg/ml preincubation, immunoblot, 190 kDa product): completely prevented prion-mediated cleavage of talin

C[S+](C)[O-] [DMSO, dimethylsulfoxide, reference compound]
Cell line MTT (viability, Vehicle = 100) [4]: 15.72 and 26.11 and 18.47

CNc1ccc2oc(C[C@H]3O[C@@]4(CC[C@H]3C)O[C@H]([C@H](C)C(=O)c3ccc[nH]3)[C@H](C)C[C@H]4C)nc2c1C(=O)O [A23187, reference compound]
calpain activity in platelets (in words) [6]: significant enhancement in calpain activity
proteolysis of talin (235 kDa to 190 kDa fragment) [7]: complete proteolysis of talin

KTNMKHMAGAAAAGAVVGGLG (also called prion peptide; prion) [PrP(106–126)]
Kd [8]: 512 ± 89 nM

— paper PMC8977893 (Frontiers in Cell and Developmental Biology, 2022)
